Activity calls are given as the source filed them. The calls are words filed in the database; no cut-off is given here.
Assays:
[1] = test system: MDA-MB-231; experiment: Antiproliferative activity against human MDA-MB-231 cells assessed as inhibition of cell growth incubated for 24 hrs by CCK8 assay; assay type: functional, cell-based; conditions: for IC50: MDA-MB-231, 24 h
[2] = target: T1, DNA topoisomerase 1 (Homo sapiens) (UniProt P11387); experiment: Inhibition of human topoisomerase 1 mediated relaxation of supercoiled pHOT1 DNA at 5 to 20 uM incubated for 30 mins by agarose gel electrophoresis; conditions: dose 5-20 µM
T1 sequence (whole entry): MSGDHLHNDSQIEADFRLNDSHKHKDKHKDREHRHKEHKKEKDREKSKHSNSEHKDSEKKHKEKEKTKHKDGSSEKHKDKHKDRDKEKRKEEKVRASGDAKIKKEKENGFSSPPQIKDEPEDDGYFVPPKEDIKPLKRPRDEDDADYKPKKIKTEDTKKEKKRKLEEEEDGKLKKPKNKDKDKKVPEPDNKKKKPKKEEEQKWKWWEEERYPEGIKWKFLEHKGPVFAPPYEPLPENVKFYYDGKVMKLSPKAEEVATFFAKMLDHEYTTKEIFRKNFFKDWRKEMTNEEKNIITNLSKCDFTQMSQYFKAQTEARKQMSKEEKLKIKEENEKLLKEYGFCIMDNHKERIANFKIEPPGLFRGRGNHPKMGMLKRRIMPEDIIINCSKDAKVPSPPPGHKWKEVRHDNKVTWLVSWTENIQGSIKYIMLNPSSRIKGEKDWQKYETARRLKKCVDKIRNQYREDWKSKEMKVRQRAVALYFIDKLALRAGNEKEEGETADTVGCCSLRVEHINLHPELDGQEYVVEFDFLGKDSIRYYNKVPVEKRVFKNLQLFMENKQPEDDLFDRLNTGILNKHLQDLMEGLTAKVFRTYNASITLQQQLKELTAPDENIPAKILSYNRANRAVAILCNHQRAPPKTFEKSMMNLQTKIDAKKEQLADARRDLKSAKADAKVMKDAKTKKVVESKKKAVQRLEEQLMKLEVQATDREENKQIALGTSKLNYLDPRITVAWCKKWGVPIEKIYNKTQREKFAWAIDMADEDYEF

[3] = test system: Quadruplex DNA; experiment: Inhibition of c-myc G4-quadruplex DNA transcriptional activity in human MDA-MB-231 cells incubated for 24 hrs by RT-PCR analysis; assay type: cell-based
[4] = target: T1, DNA topoisomerase 1 (Homo sapiens); experiment: Poison activity at human topoisomerase 1 assessed as formation of cleavage complex using pHOT-1 DNA as substrate incubated for 30 mins by agarose gel electrophoresis
[5] = target: T1, DNA topoisomerase 1 (Homo sapiens); experiment: Inhibition of human topoisomerase 1 assessed as DNA intercalation at 1.2 to 10 uM using relaxed pHOT-1 DNA as substrate preincubated with DNA for 10 mins followed by enzyme addition and measured after 30 mins by agarose gel electrophoresis; conditions: dose 1.2-10 µM, time 40.0 min
[6] = test system: Calf thymus DNA; experiment: Binding affinity to duplex calf thymus DNA assessed as dissociation constant; assay type: nucleic-acid assay, Bos taurus
[7] = target: Quadruplex DNA; experiment: Binding affinity to c-myc G4-quadruplex DNA (unknown origin) assessed as dissociation constant by fluorescence spectroscopy; assay type: nucleic-acid assay
[8] = test system: Calf thymus DNA; experiment: Binding affinity to duplex calf thymus DNA assessed as dissociation constant by fluorescence spectroscopy; assay type: nucleic-acid assay, Bos taurus
[9] = test system: Quadruplex DNA; experiment: Stabilization of c-Myc G-quadruplex DNA (unknown origin ) assessed as increase in melting temperature at 6 uM by CD spectroscopy; assay type: nucleic-acid assay
[10] = test system: Quadruplex DNA; experiment: Binding affinity to c-myc G4-quadruplex DNA Pu22 (unknown origin) by NMR spectroscopy; assay type: nucleic-acid assay
[11] = test system: MDA-MB-231; experiment: Inhibition of c-Myc gene transcription expression in human MDA-MB-231 cells at 0.5 to 2 uM incubated for 24 hrs by RT-PCR analysis; assay type: functional, cell-based; conditions: dose 0.5-2 µM
[12] = test system: MDA-MB-231; experiment: Inhibition of BCL-2 gene transcription expression in human MDA-MB-231 cells at 0.5 to 2 uM incubated for 24 hrs by RT-PCR analysis; assay type: functional, cell-based; conditions: dose 0.5-2 µM
[13] = test system: MDA-MB-231; experiment: Inhibition of VEGF gene transcription expression in human MDA-MB-231 cells at 0.5 to 2 uM incubated for 24 hrs by RT-PCR analysis; assay type: functional, cell-based; conditions: dose 0.5-2 µM
[14] = test system: MDA-MB-231; experiment: Inhibition of HRAS gene transcription expression in human MDA-MB-231 cells at 0.5 to 2 uM incubated for 24 hrs by RT-PCR analysis; assay type: functional, cell-based; conditions: dose 0.5-2 µM
[15] = test system: CA46; experiment: Downregulation of EXON 1 transcription in human CA46 cells incubated for 24 hrs by RT-PCR analysis; assay type: functional, cell-based
[16] = test system: CA46; experiment: Downregulation of EXON 2 transcription in human CA46 cells incubated for 24 hrs by RT-PCR analysis; assay type: functional, cell-based
[17] = test system: CA46; experiment: Downregulation of c-MYC transcription expression in human CA46 cells incubated for 24 hrs by RT-PCR analysis; assay type: functional, cell-based
[18] = test system: MDA-MB-231; experiment: Induction of DNA damage in human MDA-MB-231 cells assessed as increase in gammaH2AX incubated for 24 hrs by western blotting analysis; assay type: functional, cell-based
[19] = test system: MDA-MB-231; experiment: Induction of cell cycle arrest in human MDA-MB-231 cells assessed as accumulation at sub-G1 phase at 0.5 uM incubated for 24 hrs by flow cytometry (reference value: 2.8%); assay type: functional
[20] = test system: MDA-MB-231; experiment: Induction of cell cycle arrest in human MDA-MB-231 cells assessed as accumulation at sub-G1 phase at 1 uM incubated for 24 hrs by flow cytometry (reference value: 2.8%); assay type: functional
[21] = test system: MDA-MB-231; experiment: Induction of cell cycle arrest in human MDA-MB-231 cells assessed as accumulation at sub-G1 phase at 2 uM incubated for 24 hrs by flow cytometry (reference value: 2.8%); assay type: functional
[22] = test system: MDA-MB-231; experiment: Induction of cell cycle arrest in human MDA-MB-231 cells assessed as accumulation at G0/G1 phase at 0.5 uM incubated for 24 hrs by flow cytometry (reference value: 56.6%); assay type: functional
[23] = test system: MDA-MB-231; experiment: Induction of cell cycle arrest in human MDA-MB-231 cells assessed as accumulation at G0/G1 phase at 1 uM incubated for 24 hrs by flow cytometry (reference value: 56.6%); assay type: functional
[24] = test system: MDA-MB-231; experiment: Induction of cell cycle arrest in human MDA-MB-231 cells assessed as accumulation at G0/G1 phase at 2 uM incubated for 24 hrs by flow cytometry (reference value: 56.6%); assay type: functional
[25] = test system: MDA-MB-231; experiment: Induction of cell cycle arrest in human MDA-MB-231 cells assessed as accumulation at S phase at 0.5 uM incubated for 24 hrs by flow cytometry (reference value: 19.2%); assay type: functional
[26] = test system: MDA-MB-231; experiment: Induction of cell cycle arrest in human MDA-MB-231 cells assessed as accumulation at S phase at 1 uM incubated for 24 hrs by flow cytometry (reference value: 19.2%); assay type: functional
[27] = test system: MDA-MB-231; experiment: Induction of cell cycle arrest in human MDA-MB-231 cells assessed as accumulation at S phase at 2 uM incubated for 24 hrs by flow cytometry (reference value: 19.2%); assay type: functional
[28] = test system: MDA-MB-231; experiment: Induction of cell cycle arrest in human MDA-MB-231 cells assessed as accumulation at G2/M phase at 0.5 uM incubated for 24 hrs by flow cytometry (reference value: 20.4%); assay type: functional
[29] = test system: MDA-MB-231; experiment: Induction of cell cycle arrest in human MDA-MB-231 cells assessed as accumulation at G2/M phase at 1 uM incubated for 24 hrs by flow cytometry (reference value: 20.4%); assay type: functional
[30] = test system: MDA-MB-231; experiment: Induction of cell cycle arrest in human MDA-MB-231 cells assessed as accumulation at G2/M phase at 2 uM incubated for 24 hrs by flow cytometry (reference value: 20.4%); assay type: functional
[31] = test system: MDA-MB-231; experiment: Antiproliferative activity against human MDA-MB-231 cells assessed as inhibition in cell growth at 2.5 uM incubated for 24 hrs by CCK8 assay; assay type: functional, cell-based
[32] = Antiproliferative activity against human BJ fibroplast assessed as inhibition of cell growth incubated for 24 hrs by CCK8 assay; conditions: Fibroblast
[33] = test system: MDA-MB-231; experiment: Anticlonogenic activity against human MDA-MB-231 cells assessed as inhibition of colony formation incubated for 7 days by crystal violet staining based assay; assay type: functional, cell-based; conditions: time 7.0 day
[34] = test system: MDA-MB-231; experiment: Inhibition of cell migration in human MDA-MB-231 cells incubated for 24 hrs by wound scrape assay; assay type: functional, cell-based
[35] = test system: MDA-MB-231; experiment: Antitumor activity against human MDA-MB-231 cells xenografted in BALB/c mouse assessed as tumor growth inhibition measured at 2.5 mg/kg, ip administered every other day for 20 days; assay type: functional; conditions: MDA-MB-231, ip, 480 h, time 20 day, read-out: TGI
[36] = test system: MDA-MB-231; experiment: Antitumor activity against human MDA-MB-231 cells xenografted in BALB/c mouse assessed as tumor growth inhibition measured at 5 mg/kg, IP administered every other day for 20 days; assay type: functional; conditions: MDA-MB-231, ip, 480 h, time 20 day, read-out: TGI
[37] = Toxicity in human MDA-MB-231 cells xenografted BALB/c mouse assessed as body weight loss at 2.5 to 5 mg/kg, ip administered every other day for 20 days; assay type: organism-based; conditions: in vivo, 480 h, dose 2.5-5 mg/kg, time 20 day
[38] = test system: Quadruplex DNA; experiment: Binding affinity to c-myc G4-quadruplex DNA (unknown origin) by UV-Vis spectrophotometric method; assay type: nucleic-acid assay
[39] = test system: Quadruplex DNA; experiment: Binding affinity to c-myc G4-quadruplex DNA (unknown origin) at 1 uM in presence of ct-DNA by fluorescence spectroscopy; assay type: nucleic-acid assay
[40] = test system: MDA-MB-231; experiment: Inhibition of c-Myc protein expression in human MDA-MB-231 cells at 0.5 to 2 uM incubated for 24 hrs by Western blot analysis; assay type: functional, cell-based; conditions: dose 0.5-2 µM
[41] = test system: MDA-MB-231; experiment: Antitumor activity against human MDA-MB-231 cells xenografted in ip dosed BALB/c mouse assessed as tumor growth inhibition administered every other day for 20 days; assay type: functional, organism-based; conditions: dose 2.5-5 […], time 20.0 day
[42] = target: T1, DNA topoisomerase 1 (Homo sapiens); experiment: Inhibition of human topoisomerase 1 assessed as DNA intercalation at 1.2 uM using relaxed pHOT-1 DNA as substrate preincubated with DNA for 10 mins followed by enzyme addition and measured after 30 mins by agarose gel electrophoresis; conditions: time 40.0 min

COc1cc2nc3c4ccc(N5CCN(C)CC5)cc4c4cc(N5CCN(C)CC5)ccc4c3nc2cc1OC
IC50 [1]: 16.8 µM
inhibition [2]: inactive
inhibition [3]: inactive

COc1ccc2nc3c4ccc(N5CCN(C)CC5)cc4c4cc(N5CCN(C)CC5)ccc4c3nc2c1
Activity [4]: inactive
Activity [1]: Dose-Dependent Effect
inhibition [2]: Active
inhibition [3]: Active
inhibition [5]: Active
Kd [6]: 8.3 µM
Kd [7]: 0.6 µM
Kd [8]: 12.7 µM
Tm [9]: 30 °C
Activity [10]: Active
inhibition [11]: Active
inhibition [12]: inactive
inhibition [13]: inactive
inhibition [14]: inactive
Activity [15]: Active
Activity [16]: inactive
Activity [17]: inactive
Activity [18]: Active
Activity [19]: 3.1%
Activity [20]: 4.7%
Activity [21]: 20.2%
Activity [22]: 54.4%
Activity [23]: 50%
Activity [24]: 38.9%
Activity [25]: 20.3%
Activity [26]: 20.4%
Activity [27]: 16.6%
Activity [28]: 21.7%
Activity [29]: 24.9%
Activity [30]: 21.2%
Activity [31]: Active
IC50 [32]: 5.6 µM
Activity [33]: Dose-Dependent Effect
inhibition [34]: Active
inhibition in vivo at 2.5 mg/kg [35]: 52%
inhibition in vivo at 5 mg/kg [36]: 66%
Activity [37]: Non-Toxic
Activity [38]: Active
Activity [39]: Active
inhibition [40]: inactive
Activity [41]: Dose-Dependent Effect

CN1CCN(c2ccc3c(c2)c2cc(N4CCN(C)CC4)ccc2c2nc4ccccc4nc32)CC1
IC50 [1]: 1.1 µM
inhibition [2]: Active
inhibition [3]: Active

CN1CCN(c2ccc(-c3nc4cc(F)c(F)cc4nc3-c3ccc(N4CCN(C)CC4)cc3)cc2)CC1
IC50 [1]: 1.9 µM
inhibition [2]: inactive
inhibition [3]: Active

CC1CCN(c2cc3nc4c5ccc(N6CCN(C)CC6)cc5c5cc(N6CCN(C)CC6)ccc5c4nc3cc2F)CC1
IC50 [1]: 9.8 µM
inhibition [2]: inactive
inhibition [3]: inactive

CN1CCN(c2ccc3c(c2)c2cc(N4CCN(C)CC4)ccc2c2nc4cc(F)ccc4nc32)CC1
IC50 [1]: 1.1 µM
inhibition [2]: Active
inhibition [3]: Active

Cc1cc2nc3c4ccc(N5CCN(C)CC5)cc4c4cc(N5CCN(C)CC5)ccc4c3nc2cc1C
IC50 [1]: 2.7 µM
inhibition [2]: Active
inhibition [3]: Active

CC[n+]1c(-c2ccccc2)c2cc(N)ccc2c2ccc(N)cc21
inhibition [42]: Active
